Where a name gives a salt, the structure may show the parent alone.
What was measured:
[1] = target: purified human Factor XIa (Homo sapiens (Human), UniProt P03951); assay: Factor XIa enzyme inhibition assay (chromogenic substrate S-2366); details: read-out: Factor XIa Ki; measured at 25° C.
[2] = target: purified human plasma kallikrein (Homo sapiens (Human), UniProt P03952); assay: Plasma kallikrein enzyme inhibition assay (chromogenic substrate S-2302); assay type: biochemical
[3] = measured at 25° C. (no asterisk)

Sequence of purified human Factor XIa (P03951 388-625): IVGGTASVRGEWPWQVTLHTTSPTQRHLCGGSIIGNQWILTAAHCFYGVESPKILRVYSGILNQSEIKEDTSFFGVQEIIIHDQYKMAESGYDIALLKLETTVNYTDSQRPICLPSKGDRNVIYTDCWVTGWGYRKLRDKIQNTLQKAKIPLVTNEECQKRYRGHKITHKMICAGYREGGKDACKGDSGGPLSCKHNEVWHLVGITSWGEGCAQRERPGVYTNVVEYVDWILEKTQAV
Sequence of purified human Factor XIa (P03951 19-387 partner): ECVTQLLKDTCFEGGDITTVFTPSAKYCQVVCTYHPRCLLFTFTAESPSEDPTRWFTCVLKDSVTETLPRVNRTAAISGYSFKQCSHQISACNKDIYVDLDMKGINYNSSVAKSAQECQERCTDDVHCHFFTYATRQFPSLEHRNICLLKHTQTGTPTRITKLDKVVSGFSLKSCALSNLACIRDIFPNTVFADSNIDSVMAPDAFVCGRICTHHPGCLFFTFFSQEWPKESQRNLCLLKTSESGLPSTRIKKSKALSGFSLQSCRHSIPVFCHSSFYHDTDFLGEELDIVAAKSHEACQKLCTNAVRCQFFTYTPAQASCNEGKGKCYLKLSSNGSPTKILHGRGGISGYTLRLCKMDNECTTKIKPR
Sequence of purified human plasma kallikrein (P03952 391-638): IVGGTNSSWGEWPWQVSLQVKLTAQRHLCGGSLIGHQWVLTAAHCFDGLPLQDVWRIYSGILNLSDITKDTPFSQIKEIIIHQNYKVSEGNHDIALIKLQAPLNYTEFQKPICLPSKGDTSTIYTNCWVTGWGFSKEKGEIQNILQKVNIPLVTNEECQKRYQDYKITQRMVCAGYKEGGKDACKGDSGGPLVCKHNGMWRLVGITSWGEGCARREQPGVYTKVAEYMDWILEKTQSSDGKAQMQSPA
Sequence of purified human plasma kallikrein (P03952 20-390 partner): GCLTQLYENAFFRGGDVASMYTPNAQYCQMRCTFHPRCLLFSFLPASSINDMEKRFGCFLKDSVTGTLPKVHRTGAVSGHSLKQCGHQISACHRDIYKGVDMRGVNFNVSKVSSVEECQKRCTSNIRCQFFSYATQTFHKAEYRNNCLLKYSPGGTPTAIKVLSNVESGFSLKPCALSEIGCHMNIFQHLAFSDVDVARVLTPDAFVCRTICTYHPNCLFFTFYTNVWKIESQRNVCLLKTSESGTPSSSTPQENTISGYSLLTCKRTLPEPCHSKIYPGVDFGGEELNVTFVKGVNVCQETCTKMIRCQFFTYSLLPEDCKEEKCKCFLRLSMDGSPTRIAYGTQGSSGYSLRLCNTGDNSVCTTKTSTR

Row | Ki [1] [nM] | Ki ([2]; measured at 37° C. (*)) [nM] | Ki [2, 3] [nM] | SMILES
1 | < 5 | 36.2 |  | CC1(COc2cccc3c2CCN(C(=O)c2cn(-c4cccc(Cl)c4F)nn2)C3C(=O)Nc2ccc(C(=O)O)cc2)COC1 (centres unmarked) [Example 124, 4-(2-(1-(3-Chloro-2-fluorophenyl)-1H-1,2,3-triazole-4-carbonyl)-5-((3-methyloxetan-3-yl)methoxy)-1,2,3,4-tetrahydroisoquinoline-1-carboxamido)benzoic acid]
2 | < 5 | 94 |  | O=C(Nc1ccc(-c2ncc[nH]2)cc1)C1c2cccc(-c3cncnc3)c2CCN1C(=O)c1cn(-c2cccc(Cl)c2F)nn1 (centres unmarked) [Example 126, N-(4-(1H-imidazol-2-yl)phenyl)-2-(1-(3-chloro-2-fluorophenyl)-1H-1,2,3-triazole-4-carbonyl)-5-(pyrimidin-5-yl)-1,2,3,4-tetrahy-droisoquinoline-1-carboxamide, TFA salt]
3 | < 5 | 196 |  | O=C(Nc1ccc(-c2cc[nH]n2)cc1)C1c2cccc(-c3cncnc3)c2CCN1C(=O)c1cn(-c2cccc(Cl)c2F)nn1 (centres unmarked) [Example 127, N-(4-(1H-pyrazol-3-yl)phenyl)-2-(1-(3-chloro-2-fluorophenyl)-1H-1,2,3-triazole-4-carbonyl)-5-(pyrimidin-5-yl)-1,2,3,4-tetrahydroisoquinoline-1-carboxamide, TFA salt]
4 | < 5 | 65.3 |  | COC(=O)c1ccc2cc(NC(=O)C3c4cccc(-c5cncnc5)c4CCN3C(=O)c3cn(-c4cccc(Cl)c4F)nn3)ccc2n1 (centres unmarked) [Example 128, methyl 6-(2-(1-(3-chloro-2-fluorophenyl)-1H-1,2,3-triazole-4-carbonyl)-5-(pyrimidin-5-yl)-1,2,3,4-tetrahydroisoquinoline-1-carboxamido) quinoline-2-carboxylate, TFA salt]
5 | < 5 | 34 |  | O=C(O)c1ccc2cc(NC(=O)C3c4cccc(-c5cncnc5)c4CCN3C(=O)c3cn(-c4cccc(Cl)c4F)nn3)ccc2n1 (centres unmarked) [Example 129, 6-(2-(1-(3-chloro-2-fluorophenyl)-1H-1,2,3-triazole-4-carbonyl)-5-(pyrimidin-5-yl)-1,2,3,4-tetrahydroisoquinoline-1-carboxamido) quinoline-2-carboxylic acid, TFA salt]
6 | 28.3 | 126 |  | O=C(Nc1ccc2cnccc2c1)C1c2cccc(-c3cncnc3)c2CCN1C(=O)c1cn(-c2cccc(Cl)c2F)nn1 (centres unmarked) [Example 130, 2-(1-(3-chloro-2-fluorophenyl)-1H-1,2,3-triazol-4-carbonyl)-N-(isoquinolin-6-yl)-5-(pyrimidin-5-yl)-1,2,3,4-tetrahydroisoquinoline-1-carboxamide, TFA salt]
7 | < 5 | 60.3 |  | O=C(Nc1ccc(-c2ncn[nH]2)cc1)C1c2cccc(-c3cncnc3)c2CCN1C(=O)c1cn(-c2cccc(Cl)c2F)nn1 (centres unmarked) [Example 131, N-(4-(1H-1,2,4-triazol-5-yl)phenyl)-2-(1-(3-chloro-2-fluorophenyl)-1H-1,2,3-triazole-4-carbonyl)-5-(pyrimidin-5-yl)-1,2,3,4-tetrahydroisoquinoline-1-carboxamide, TFA salt]
8 | 124 | 1620 |  | COC(=O)[C@H]1CC[C@@H](NC(=O)C2c3cccc(-c4cncnc4)c3CCN2C(=O)c2cn(-c3cccc(Cl)c3F)nn2)CC1 (stereo partly drawn) [Example 132, (1R,4R)-methyl 4-(2-(1-(3-chloro-2-fluorophenyl)-1H-1,2,3-triazole-4-carbonyl)-5-(pyrimidin-5-yl)-1,2,3,4-tetrahydroisoquinoline-1-carboxamido) cyclohexanecarboxylate]
9 | < 5 | 399 |  | O=C(Nc1ccc(-c2ncc[nH]2)cc1)[C@H]1c2cccc(-c3cncnc3)c2CCN1C(=O)[C@H]1CC(c2cccc(Cl)c2F)=NO1 [Example 135, (R)-N-(4-(1H-imidazol-2-yl)phenyl)-2-((R)-3-(3-chloro-2-fluorophenyl)-4,5-dihydroisoxazole-5-carbonyl)-5-(pyrimidin-5-yl)-1,2,3,4-tetrahydroisoquinoline-1-carboxamide TFA salt]
10 | 6.97 | 157 |  | Cc1c(C(=O)N2CCc3c(-c4cncnc4)cccc3C2C(=O)Nc2ccc(-c3ncc[nH]3)cc2)ncn1-c1cccc(Cl)c1F (centres unmarked) [Example 136, N-(4-(1H-Imidazol-2-yl)phenyl)-2-(1-(3-chloro-2-fluorophenyl)-5-methyl-1H-imidazole-4-carbonyl)-5-(pyrimidin-5-yl)-1,2,3,4-tetrahydroisoquinoline-1-carboxamide, 2 TFA salt]
11 | < 5 | 53.4 |  | O=C(Nc1ccc(-c2ncc[nH]2)cc1)C1c2cccc(-c3cncnc3)c2CCN1C(=O)c1cn(-c2cccc(Cl)c2F)cn1 (centres unmarked) [Example 137, N-(4-(1H-Imidazol-2-yl)phenyl)-2-(1-(3-chloro-2-fluorophenyl)-1H-imidazole-4-carbonyl)-5-(pyrimidin-5-yl)-1,2,3,4-tetrahydroisoquinoline-1-carboxamide, 2 TFA]
12 | 39.7 | 2370 |  | COC1CCN(c2cccc3c2CCN(C(=O)c2nnn(-c4cccc(Cl)c4F)c2C)C3C(=O)Nc2ccc(-c3ncc[nH]3)cc2)CC1 (centres unmarked) [Example 140, N-(4-(1H-Imidazol-2-yl)phenyl)-2-(1-(3-chloro-2-fluorophenyl)-5-methyl-1H-1,2,3-triazole-4-carbonyl)-5-(4-methoxypiperidin-1-yl)-1,2,3,4-tetrahydroisoquinoline-1-carboxamide, 2 TFA salt]
13 | 5.95 | 161 |  | COC1CCN(c2cccc3c2CCN(C(=O)c2cn(-c4cccc(Cl)c4F)nn2)C3C(=O)Nc2ccc(-c3ncc[nH]3)cc2)CC1 (centres unmarked) [Example 141, N-(4-(1H-Imidazol-2-yl)phenyl)-2-(1-(3-chloro-2-fluorophenyl)-1H-1,2,3-triazole-4-carbonyl)-5-(4-methoxypiperidin-1-yl)-1,2,3,4-tetrahydroisoquinoline-1-carboxamide, 2 TFA]
14 | 5.23 | 237 |  | O=C(NC12CCC(C(=O)O)(CC1)CC2)C1c2cccc(-c3cncnc3)c2CCN1C(=O)c1cn(-c2cccc(Cl)c2F)nn1 (centres unmarked) [Example 143, 4-(2-{[1-(3-Chloro-2-fluorophenyl)-1H-1,2,3-triazol-4-yl]carbonyl}-5-(pyrimidin-5-yl)-1,2,3,4-tetrahydroisoquinoline-1-amido)bicyclo[2.2.2]octane-1-carboxylic acid, 1 TFA]
15 | 2690 | > 6000 |  | COC1CCN(c2cccc3c2CCN(C(=O)c2cc(C)n(-c4ccc(Cl)cc4)c2C)C3C(=O)Nc2ccc(C(=O)O)cc2)CC1 (centres unmarked) [Example 147, 4-(2-(1-(4-chlorophenyl)-2,5-dimethyl-1H-pyrrole-3-carbonyl)-5-(4-methoxypiperidin-1-yl)-1,2,3,4-tetrahydroisoquinoline-1-carboxamido)benzoic acid, TFA salt]
16 | 2600 | > 6000 |  | COC1CCN(c2cccc3c2CCN(C(=O)c2cnn(-c4cccc(Cl)c4)c2C(F)(F)F)C3C(=O)Nc2ccc(C(=O)O)cc2)CC1 (centres unmarked) [Example 150, 4-(2-(1-(3-chlorophenyl)-5-(trifluoromethyl)-1H-pyrazole-4-carbonyl)-5-(4-methoxypiperidin-1-yl)-1,2,3,4-tetrahydroisoquinoline-1-carboxamido)benzoic acid, TFA salt]
17 | 5.73 |  | 62.2 | COc1ncccc1-c1cccc2c1CCN(C(=O)c1cn(-c3cccc(Cl)c3F)nn1)C2C(=O)Nc1ccc(C(=O)O)cc1 (centres unmarked) [Example 153, 4-(2-(1-(3-chloro-2-fluorophenyl)-1H-1,2,3-triazole-4-carbonyl)-5-(2-methoxypyridin-3-yl)-1,2,3,4-tetrahydroisoquinoline-1-carboxamido)benzoic acid, TFA salt]
18 | < 5 |  | 5.26 | CN(C)Cc1ccc(-c2cccc3c2CCN(C(=O)c2cn(-c4cccc(Cl)c4F)nn2)C3C(=O)Nc2ccc(C(=O)O)cc2)cc1 (centres unmarked) [Example 154, 4-(2-(1-(3-chloro-2-fluorophenyl)-1H-1,2,3-triazole-4-carbonyl)-5-(4-((dimethylamino)methyl)phenyl)-1,2,3,4-tetrahydroisoquinoline-1-carboxamido)benzoic acid, TFA salt]
19 | < 5 |  | 23.9 | NS(=O)(=O)c1cccc(-c2cccc3c2CCN(C(=O)c2cn(-c4cccc(Cl)c4F)nn2)C3C(=O)Nc2ccc(C(=O)O)cc2)c1 (centres unmarked) [Example 155, 4-(2-(1-(3-chloro-2-fluorophenyl)-1H-1,2,3-triazole-4-carbonyl)-5-(3-sulfamoylphenyl)-1,2,3,4-tetrahydroisoquinoline-1-carboxamido)benzoic acid]

Row | SMILES | Ki [1] [nM] | Ki ([2]; measured at 37° C. (*)) [nM] | Ki [2, 3] [nM]
20 | O=C(Nc1ccc(-c2ncc[nH]2)cc1)[C@@H]1c2cccc(-c3cncnc3)c2CCN1C(=O)[C@H]1CC(c2cccc(Cl)c2F)=NO1 [Example 134, (S)-N-(4-(1H-Imidazol-2-yl)phenyl)-2-((R)-3-(3-chloro-2-fluorophenyl)-4,5-dihydroisoxazole-5-carbonyl)-5-(pyrimidin-5-yl)-1,2,3,4-tetrahydroisoquinoline-1-carboxamide, TFA salt] | < 5 | 24.4 | 
21 | O=C(Nc1ccc(-c2ncc[nH]2)cc1)[C@@H]1c2cccc(-c3cncnc3)c2CCN1C(=O)c1cn(-c2cccc(Cl)c2F)nn1 [Example 138, (S)-N-(4-(1H-Imidazol-2-yl)phenyl)-2-(1-(3-chloro-2-fluorophenyl)-1H-1,2,3-triazole-4-carbonyl)-5-(pyrimidin-5-yl)-1,2,3,4-tetrahydroisoquinoline-1-carboxamide, TFA salt] | < 5 | 25.9 | 
22 | O=C(Nc1ccc(-c2ncc[nH]2)cc1)[C@H]1c2cccc(-c3cncnc3)c2CCN1C(=O)c1cn(-c2cccc(Cl)c2F)nn1 [Example 139, (R)-N-(4-(1H-Imidazol-2-yl)phenyl)-2-(1-(3-chloro-2-fluorophenyl)-1H-1,2,3-triazole-4-carbonyl)-5-(pyrimidin-5-yl)-1,2,3,4-tetrahydroisoquinoline-1-carboxamide, TFA salt] | 133 | > 13000 | 
